# System: Puccinia recondita
# Experiment: Test on the preventive effect against wheat leaf rust
# Format: in vivo
# Conditions: 216 h, test solution A 500 ppm, 5 ml per pot, wheat 1.3-leaf stage, 1 day inoculation chamber then 8 days at 20° C.
# Method: Compounds of the present invention were dissolved in a solvent for emulsion (a mixture of Sorpol (registered trademark) 3005XL (manufactured by Toho Chemical Industry Co., Ltd.): N-methylpyrrolidone: Solvesso (registered trademark) 200 (manufactured by ExxonMobil Chemical) in a ratio of 1:5:2) to prepare 20 wt % emulsifiable concentrates. Then, distilled water was added to dilute the emulsifiable concentrates to the prescribed concentration (500 ppm), and the obtained solutions were used in the following the Test Examples 1 to 8. Wheat (varieties: Norin 61) was seeded in 90 cm^3 plastic pot, and at 1.3-leaf stage, 5 ml per pot of test solution A of the compounds of the present invention was applied. One day after treatment, a suspension of spores of Puccinia recondita was sprayed to the wheat, and the pot was left in the inoculation chamber at 20° C. under humidity of 100% RH for 1 day. Thereafter, the pot was placed in an air-conditioned greenhouse (20° C.) for 8 days. The proportion of the formed lesion in the inoculated leaves were counted to calculate the control value in accordance with the same formula as in the Test Example 1. The test was carried out in duplicate.
row,Compound,pest or weed control at 500 µg/mL
1,Cn1cc(C(=O)NCCc2ncc(C#CC3CC3)cc2Cl)c(C(F)F)n1 [8-001],≥ 70%
2,"CC(Cc1ncc(C#CC2CC2)cc1Cl)NC(=O)c1cn(C)nc1C(F)F (stereo not drawn) [8-024, N-[2-[3-chloro-5-(cyclopropylethynyl)pyridin-2-yl]-1-methylethyl]-3-difluoromethyl-1-methyl-1H-pyrazole-4-carboxamide]",≥ 70%
3,Cn1cc(C(=O)NCCc2ncc(C#CC(C)(C)C)cc2Cl)c(C(F)F)n1 [8-002],≥ 70%
4,"O=C(NCC(F)(F)c1ncc(C#CC2CC2)cc1Cl)c1cccnc1C(F)F [3-003, N-[2-[3-chloro-5-(cyclopropylethynyl)pyridin-2-yl]-2,2-difluoroethyl]-2-(difluoromethyl)nicotinamide]",≥ 70%
5,CC(C)(C)C#Cc1cnc(CCNC(=O)c2cccnc2C(F)F)c(Cl)c1 [3-002],≥ 70%
6,COC(c1ncc(C#CC(C)(C)C)cc1Cl)C(C)NC(=O)c1ccccc1C(F)(F)F (stereo not drawn) [1-025],≥ 70%
7,CC(CNC(=O)c1cn(C)nc1C(F)F)c1ncc(C#CC2CC2)cc1Cl (stereo not drawn) [8-007],≥ 70%
8,COC(c1ncc(C#CC2CC2)cc1Cl)C(C)NC(=O)c1nccnc1C(F)(F)F (stereo not drawn) [4-004],≥ 70%
9,Cn1cc(C(=O)NCC(c2ncc(C#CC3CC3)cc2Cl)C2CC2)c(C(F)F)n1 (stereo not drawn) [8-009],≥ 70%
10,CC(Cc1ncc(C#Cc2ccccc2)cc1Cl)NC(=O)c1cn(C)nc1C(F)F (stereo not drawn) [8-027],≥ 70%
11,"O=C(NCCc1ncc(C#CC2CC2)cc1Cl)c1cccnc1C(F)F [3-001, N-[2-[3-chloro-5-(cyclopropylethynyl)pyridin-2-yl]ethyl]-2-(difluoromethyl)nicotinamide]",≥ 70%
12,COC(c1ncc(C#CC2CC2)cc1Cl)C(C)NC(=O)c1cccnc1C(F)F (stereo not drawn) [3-021],≥ 70%
13,CSC(CNC(=O)c1cccnc1C(F)F)c1ncc(C#CC2CC2)cc1Cl (stereo not drawn) [3-020],≥ 70%
14,COC(c1ncc(C#CC2CC2)cc1Cl)C(C)NC(=O)c1ccccc1C(F)(F)F (stereo not drawn) [1-024],≥ 70%
15,O=C(NCC(c1ncc(C#CC2CC2)cc1Cl)C1CC1)c1cccnc1C(F)F (stereo not drawn) [3-008],≥ 70%
16,"C=C(CNC(=O)c1cn(C)nc1C(F)F)c1ncc(C#CC2CC2)cc1Cl [8-011, N-[2-[3-chloro-5-(cyclopropylethynyl)pyridin-2-yl]-2-propenyl]-3-difluoromethyl-1-methyl-1H-pyrazole-4-carboxamide]",≥ 70%
17,"CC(NC(=O)c1ccccc1C(F)(F)F)C(OCc1ccccc1)c1ncc(C#CC2CC2)cc1Cl (stereo not drawn) [1-031, N-[2-benzyloxy-2-[3-chloro-5-(cyclopropylethynyl)pyridin-2-yl]-1-methylethyl]-2-(trifluoromethyl)benzamide]",≥ 70%
18,"COC(=O)C(CNC(=O)c1cn(C)nc1C(F)F)c1ncc(C#CC2CC2)cc1Cl (stereo not drawn) [8-022, 2-[3-chloro-5-(cyclopropylethynyl)pyridin-2-yl]-3-(3-difluoromethyl-1-methyl-1H-pyrazole-4-carboxamide)propionic acid methyl ester]",≥ 70%
